Reference: patent US20240391875A1, “ISOQUINOLINONES AND QUINOLINONES AS MODULATORS OF POLRMT” (Pretzel Therapeutics, Inc., priority 2021, published 2024)

Target: POLRMT (Homo sapiens, UniProt O00411)
Experiment: homogeneous TR-FRET assay of mitochondrial transcription (inhibition of POLRMT)
Format: biochemical
Procedure, shortened: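 Recombinant POLRMT (7.5 nM) with TFB2M, TFAM and linearized LSP plasmid template, 500 μM NTPs, pH 7.5 Mg buffer; 60 min at 37° C. Reaction stopped with EDTA/high-salt buffer, 407 bp RNA transcript detected by hybridized ATTO647/Europium-cryptate probe pair; TR-FRET 665/620 nm ratio taken as transcript yield.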

[1] = isoquinolinone compounds (Table 1)
[2] = quinolinone compounds (Table 2)

POLRMT, sequence (O00411 42-1230): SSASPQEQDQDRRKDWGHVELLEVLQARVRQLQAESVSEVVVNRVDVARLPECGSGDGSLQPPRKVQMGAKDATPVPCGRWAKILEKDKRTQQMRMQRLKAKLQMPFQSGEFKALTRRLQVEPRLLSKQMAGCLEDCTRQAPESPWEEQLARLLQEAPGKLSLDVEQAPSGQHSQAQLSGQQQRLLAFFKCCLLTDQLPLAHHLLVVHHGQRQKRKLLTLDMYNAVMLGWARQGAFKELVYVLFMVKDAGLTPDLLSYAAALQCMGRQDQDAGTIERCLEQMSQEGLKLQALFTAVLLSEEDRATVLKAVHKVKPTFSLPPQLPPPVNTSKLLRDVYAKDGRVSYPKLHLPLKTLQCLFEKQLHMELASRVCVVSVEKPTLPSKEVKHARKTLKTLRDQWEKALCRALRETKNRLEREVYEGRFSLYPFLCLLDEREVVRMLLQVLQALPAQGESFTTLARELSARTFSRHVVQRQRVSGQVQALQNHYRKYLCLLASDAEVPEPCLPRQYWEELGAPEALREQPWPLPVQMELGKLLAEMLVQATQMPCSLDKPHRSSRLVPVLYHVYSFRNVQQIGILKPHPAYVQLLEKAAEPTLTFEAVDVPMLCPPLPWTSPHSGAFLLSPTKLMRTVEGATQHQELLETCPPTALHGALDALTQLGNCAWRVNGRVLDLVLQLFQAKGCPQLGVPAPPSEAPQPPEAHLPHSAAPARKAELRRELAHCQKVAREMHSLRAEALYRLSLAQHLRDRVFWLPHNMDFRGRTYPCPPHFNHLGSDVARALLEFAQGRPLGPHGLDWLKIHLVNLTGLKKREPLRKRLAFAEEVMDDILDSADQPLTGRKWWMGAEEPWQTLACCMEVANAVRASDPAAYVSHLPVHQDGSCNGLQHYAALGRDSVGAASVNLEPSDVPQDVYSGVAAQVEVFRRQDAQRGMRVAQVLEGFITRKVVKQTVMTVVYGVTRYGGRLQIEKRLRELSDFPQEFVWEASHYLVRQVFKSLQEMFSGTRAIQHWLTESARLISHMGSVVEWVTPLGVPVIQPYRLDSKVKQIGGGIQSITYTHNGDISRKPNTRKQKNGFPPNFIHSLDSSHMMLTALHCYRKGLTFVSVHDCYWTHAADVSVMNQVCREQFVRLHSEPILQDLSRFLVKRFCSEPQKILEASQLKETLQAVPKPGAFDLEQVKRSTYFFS

IC50 [1] [µM]	IC50 [2] [µM]	Structure (SMILES)
3		C[C@@H](Oc1ccc2c(-c3ccc(F)cc3Cl)c[nH]c(=O)c2c1)C(=O)N1CC[S+]([O-])CC1 [Example 128, (R)-4-(2-chloro-4-fluorophenyl)-7-((1-(1-oxidothiomorpholino)-1-oxopropan-2-yl)oxy)isoquinolin-1(2H)-one]
1		C[C@@H](Oc1ccc2c(-c3ccc(F)cc3Cl)c[nH]c(=O)c2c1)C(=O)N1CCO[C@@H](C(N)=O)C1 [Example 129, (R)-4-((R)-2-((4-(2-chloro-4-fluorophenyl)-1-oxo-1,2-dihydroisoquinolin-7-yl)oxy)propanoyl)morpholine-2-carboxamide]
2		C[C@@H](Oc1ccc2c(-c3ccc(F)cc3Cl)c[nH]c(=O)c2c1)C(=O)N1CCN(S(C)(=O)=O)CC1 [Example 130, (R)-4-(2-chloro-4-fluorophenyl)-7-((1-(4-(methylsulfonyl)piperazin-1-yl)-1-oxopropan-2-yl)oxy)isoquinolin-1(2H)-one]
1		C[C@@H](Oc1ccc2c(-c3ccc(F)cc3Cl)c[nH]c(=O)c2c1)C(=O)N1CCN(C)CC1 [Example 131, (R)-4-(2-chloro-4-fluorophenyl)-7-((1-(4-methylpiperazin-1-yl)-1-oxopropan-2-yl)oxy)isoquinolin-1(2H)-one]
0.4		C[C@@H](Oc1ccc2c(-c3ccc(F)cc3Cl)c[nH]c(=O)c2c1)C(=O)N1CCO[C@H](C(N)=O)C1 [Example 132, (S)-4-((R)-2-((4-(2-chloro-4-fluorophenyl)-1-oxo-1,2-dihydroisoquinolin-7-yl)oxy)propanoyl)morpholine-2-carboxamide]
1		Cc1sccc1-c1c[nH]c(=O)c2cc(OCC#N)ccc12 [Example 133, 2-((4-(2-methylthiophen-3-yl)-1-oxo-1,2-dihydroisoquinolin-7-yl)oxy)acetonitrile]
21		Cc1sccc1-c1c[nH]c(=O)c2cc(OCC(N)=O)ccc12 [Example 134, 2-((4-(2-methylthiophen-3-yl)-1-oxo-1,2-dihydroisoquinolin-7-yl)oxy)acetamide]
0.2		Cc1c(F)cccc1-c1c[nH]c(=O)c2cc(OCC#N)ccc12 [Example 135, 2-((4-(3-fluoro-2-methylphenyl)-1-oxo-1,2-dihydroisoquinolin-7-yl)oxy)acetonitrile]
3		Cc1c(F)cccc1-c1c[nH]c(=O)c2cc(OCC(N)=O)ccc12 [Example 136, 2-((4-(3-fluoro-2-methylphenyl)-1-oxo-1,2-dihydroisoquinolin-7-yl)oxy)acetamide]
0.3		CCc1ccccc1-c1c[nH]c(=O)c2cc(OCC#N)ccc12 [Example 137, 2-((4-(2-ethylphenyl)-1-oxo-1,2-dihydroisoquinolin-7-yl)oxy)acetonitrile]
12		CCc1ccccc1-c1c[nH]c(=O)c2cc(OCC(N)=O)ccc12 [Example 138, 2-((4-(2-ethylphenyl)-1-oxo-1,2-dihydroisoquinolin-7-yl)oxy)acetamide]
2		C[C@@H](Oc1ccc2c(-c3ccc(F)cc3Cl)c[nH]c(=O)c2c1)C(=O)N1CCS(=N)(=O)CC1 [Example 139, (R)-4-(2-chloro-4-fluorophenyl)-7-((1-(1-imino-1-oxido-1λ^6-thiomorpholino)-1-oxopropan-2-yl)oxy)isoquinolin-1(2H)-one]
	> 100	COc1ccc2c(-c3ccc(F)cc3Cl)cc(=O)[nH]c2c1 [Example Q1, 4-(2-chloro-4-fluorophenyl)-7-methoxyquinolin-2(1H)-one]
	> 100	O=c1cc(-c2ccc(F)cc2Cl)c2ccc(O)cc2[nH]1 [Example Q2, 4-(2-chloro-4-fluorophenyl)-7-hydroxyquinolin-2(1H)-one]
	4	Cc1cc(F)ccc1-c1cc(=O)[nH]c2cc(OC(C)C)ccc12 [Example Q3, 4-(4-fluoro-2-methylphenyl)-7-isopropoxy-1H-quinolin-2-one]
	23	CC(C)Oc1ccc2c(-c3ccc(F)cc3Cl)cc(=O)[nH]c2c1 [Example Q4, 4-(2-chloro-4-fluorophenyl)-7-isopropoxyquinolin-2(1H)-one]
	5	C[C@@H](Oc1ccc2c(-c3ccc(F)cc3Cl)cc(=O)[nH]c2c1)C(=O)N1CCCCC1 [Example Q5, (R)-4-(2-chloro-4-fluorophenyl)-7-((1-oxo-1-(piperidin-1-yl)propan-2-yl)oxy)quinolin-2(1H)-one]
	18	C[C@@H](Oc1ccc2c(-c3ccc(F)cc3Cl)cc(=O)[nH]c2c1)C(=O)N(C)C [Example Q6, (R)-2-((4-(2-chloro-4-fluorophenyl)-2-oxo-1,2-dihydroquinolin-7-yl)oxy)-N,N-dimethylpropanamide]
	> 100	COc1ccc2c(-c3ccccc3)cc(=O)[nH]c2c1 [Example Q9, 7-methoxy-4-phenylquinolin-2(1H)-one]
	2	Cc1ccccc1-c1cc(=O)[nH]c2cc(OC(C)C)ccc12 [Example Q10, 7-isopropoxy-4-(o-tolyl)quinolin-2(1H)-one]
	3	Cc1ccccc1-c1cc(=O)[nH]c2cc(O[C@H](C)C(=O)O)ccc12 [Example Q13, (R)-2-((2-oxo-4-(o-tolyl)-1,2-dihydroquinolin-7-yl)oxy)propanoic acid]
	7	Cc1ccccc1-c1cc(=O)[nH]c2cc(O[C@H](C)C(=O)N3CCC(C(=O)O)CC3)ccc12 [Example Q14, (R)-1-(2-((2-oxo-4-(o-tolyl)-1,2-dihydroquinolin-7-yl)oxy)propanoyl)piperidine-4-carboxylic acid]
	7	Cc1ccccc1-c1cc(=O)[nH]c2cc(O[C@H](C)C(=O)N3CCC[C@H](C(=O)O)C3)ccc12 [Example Q15, (S)-1-((R)-2-((2-oxo-4-(o-tolyl)-1,2-dihydroquinolin-7-yl)oxy)propanoyl)piperidine-3-carboxylic acid]

Structure (SMILES)	IC50 [1] [µM]	IC50 [2] [µM]
CCC(C)Oc1ccc2c(-c3ccccc3C)cc(=O)[nH]c2c1 (stereo not shown) [Example Q11, 7-(sec-butoxy)-4-(o-tolyl)quinolin-2(1H)-one]		3
Cc1ccccc1-c1cc(=O)[nH]c2cc(OCC(C)C)ccc12 [Example Q12, 7-isobutoxy-4-(o-tolyl)quinolin-2(1H)-one]		18
